From US12357603B2, “Acyl sulfonamides for treating cancer” (Bayer Aktiengesellschaft, priority 2019, dated 2025)

How the values were obtained:
ZR-75-1 cells = test: Proliferation assay ZR-75-1 (Alamar Blue, 144 h); type: cell-based; settings: Homo sapiens, ZR-75-1, 144 h, arithmetic mean, read-out: ZR75-1 proliferation assay, EC50 [M] (arithmetic mean)
Method in brief: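 Alamar Blue fluorescence (590 nm, 2 h reagent step) measured viability after 144 h compound exposure at 37 °C, 5% CO2. Compounds spanned 2.0×10E-5 to 2.0×10E-9 M in 9 dilutions at 0.2% DMSO, in triplicate, added 24 h after plating 3000 cells/well in RPMI 1640 plus 2.5% FBS.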

MDA-MB-436 cells = test: Proliferation assay MDA-MB-436, negative control cell line (Alamar Blue, 144 h); type: cell-based; settings: Homo sapiens, MDA-MB-436, 144 h, arithmetic mean
Method in brief: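 Viability read as Alamar Blue fluorescence (590 nm, 2 h) after 144 h compound exposure at 37 °C, 5% CO2. Cells seeded at 3000 per well in 2.5% FBS DMEM/Ham's F12, dosed a day later over 2.0×10E-9–2.0×10E-5 M in 9 steps with 0.2% DMSO, in triplicate.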

[1] = target: Recombinant human GST-tagged Kat6b protein (431-end); test: Kat6b activity assay (TR-FRET, acetylation of biotinylated Histone-H4-derived peptide); type: biochemical; settings: 30 mins at 22° C., read-out: KAT6B activity assay IC50 [mol/l] (arithmetic mean)
[2] = target: Recombinant human His-tagged Kat6a protein (amino acids 194-810) (Homo sapiens (Human), UniProt Q92794); test: Kat6a activity assay (TR-FRET, acetylation of biotinylated Histone-H4-derived peptide); type: biochemical; settings: 60 mins at 22° C., read-out: KAT6A-DPF/HAT domain IC50 [mol/l] (arithmetic mean)
Method in brief: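 TR-FRET read-out of H4 K8 acetylation, using anti-acetyl-K8 antibody and streptavidin acceptor, after anacardic acid stop; IC50 from four-parameter regression normalized to DMSO. Reaction: recombinant human Kat6a aa 194-810 (insect-cell derived), 220 nM H4 1-24 peptide, 600 nM acetyl-CoA, pH 8, 22 °C, 60 min, compounds 0.01-20 μM.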

[3] = test system: ESR1 transcription (luciferase signal in MVLN cells); test: Repression of ESR1 transcription, luciferase reporter in MVLN cells; type: cell-based; settings: Homo sapiens, MVLN, inhibition of luciferase signal in MVLN cells; arithmetic mean
Method in brief: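 Luminescence from an ER-driven Vitellogenin A2 element–luciferase reporter was measured after 24 h of treatment of MVLN cells, in duplicate wells. Alamar Blue (2 h, 530/590 nm) served as a cell-density control.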

Recombinant human His-tagged Kat6a protein (amino acids 194-810), sequence (Q92794 194-810): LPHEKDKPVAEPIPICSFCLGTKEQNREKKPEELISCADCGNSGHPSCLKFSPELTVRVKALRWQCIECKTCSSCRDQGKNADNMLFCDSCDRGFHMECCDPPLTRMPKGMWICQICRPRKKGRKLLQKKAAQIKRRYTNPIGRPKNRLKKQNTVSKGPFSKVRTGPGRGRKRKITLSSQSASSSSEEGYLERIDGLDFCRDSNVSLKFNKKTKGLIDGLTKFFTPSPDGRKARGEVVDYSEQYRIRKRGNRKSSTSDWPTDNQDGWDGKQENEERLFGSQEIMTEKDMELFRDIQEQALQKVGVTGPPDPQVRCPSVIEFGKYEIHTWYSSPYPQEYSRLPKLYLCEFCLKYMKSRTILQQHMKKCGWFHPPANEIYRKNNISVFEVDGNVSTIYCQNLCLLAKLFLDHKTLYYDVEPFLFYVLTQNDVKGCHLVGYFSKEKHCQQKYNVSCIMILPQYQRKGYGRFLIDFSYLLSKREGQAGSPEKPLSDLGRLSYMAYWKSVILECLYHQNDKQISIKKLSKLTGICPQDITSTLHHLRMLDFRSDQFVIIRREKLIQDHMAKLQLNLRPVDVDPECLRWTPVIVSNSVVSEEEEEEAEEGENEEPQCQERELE

SMILES	EC50 (MDA-MB-436 cells)	IC50 [1]	IC50 [2]	IC50 [3]	EC50 (ZR-75-1 cells)
COc1cc(C)c(Cl)cc1S(=O)(=O)NC(=O)c1cc2ccc(N(C)C)cc2o1 [Example 138, N-(5-Chloro-2-methoxy-4-methylbenzene-1-sulfonyl)-6-(dimethylamino)-1-benzofuran-2-carboxamide]	> 20000 nM	79.5 nM	56.7 nM	216 nM	5.01e-07 M
COc1ccc(Cl)c(S(=O)(=O)NC(=O)c2cc3ccc(N(C)C)cc3o2)c1 [Example 139, N-(2-Chloro-5-methoxybenzene-1-sulfonyl)-6-(dimethylamino)-1-benzofuran-2-carboxamide]	> 20000 nM	369 nM	329 nM	1370 nM	7.07e-07 M
CN(C)c1ccc2cc(C(=O)NS(=O)(=O)c3c(F)cccc3OC3CCC3)oc2c1 [Example 142, N-[2-(Cyclobutyloxy)-6-fluorobenzene-1-sulfonyl]-6-(dimethylamino)-1-benzofuran-2-carboxamide]	> 20000 nM	229 nM	139 nM	166 nM	4.37e-07 M
CCOc1ccc(CC)cc1S(=O)(=O)NC(=O)c1cc2ccc(N(C)C)cc2o1 [Example 143, 6-(Dimethylamino)-N-(2-ethoxy-5-ethylbenzene-1-sulfonyl)-1-benzofuran-2-carboxamide]	> 20000 nM	43.1 nM	29.3 nM	40.8 nM	6.42e-08 M
CCc1cccc(OC)c1S(=O)(=O)NC(=O)c1cc2ccc(N(C)C)cc2o1 [Example 147, 6-(Dimethylamino)-N-(2-ethyl-6-methoxybenzene-1-sulfonyl)-1-benzofuran-2-carboxamide]	> 20000 nM	69.2 nM	98.6 nM	86.8 nM	7.83e-08 M
COc1ccc(Br)cc1S(=O)(=O)NC(=O)c1cc2ccc(N(C)C)cc2o1 [Example 148, N-(5-Bromo-2-methoxybenzene-1-sulfonyl)-6-(dimethylamino)-1-benzofuran-2-carboxamide]	> 20000 nM	68 nM	104 nM	121 nM	1.28e-07 M
COc1ccc(Cl)cc1S(=O)(=O)NC(=O)c1cc2ccc(N(C)C)cc2o1 [Example 149, N-(5-chloro-2-methoxybenzene-1-sulfonyl)-6-(dimethylamino)-1-benzofuran-2-carboxamide]	> 20000 nM	379 nM	123 nM	138 nM	1.74e-07 M
CN(C)c1ccc2cc(C(=O)NS(=O)(=O)c3cc(C(C)(C)C)ccc3OCc3ccccc3)oc2c1 [Example 179, N-[(2-(Benzyloxy)-5-(tert-butyl)phenyl)sulfonyl]-6-(dimethylamino)benzofuran-2-carboxamide]	> 20000 nM	19.4 nM	8.95 nM	15.9 nM	6.79e-08 M
CN(C)c1ccc2cc(C(=O)NS(=O)(=O)c3cc(C(C)(C)C)ccc3OCC3CC3)oc2c1 [Example 180, N-((5-(tert-butyl)-2-(cyclopropylmethoxy)phenyl)sulfonyl)-6-(dimethylamino)benzofuran-2-carboxamide]	> 20000 nM	21.3 nM	4.36 nM	22.9 nM	3.77e-08 M
CN(C)c1ccc2cc(C(=O)NS(=O)(=O)c3cc(C(C)(C)C)ccc3OCC(F)(F)F)oc2c1 [Example 181, N-[(5-(tert-butyl)-2-(2,2,2-trifluoroethoxy)phenyl)sulfonyl]-6-(dimethylamino)benzofuran-2-carboxamide]	> 20000 nM	43.5 nM	11.8 nM	30.1 nM	9.93e-08 M
CN(C)c1ccc2cc(C(=O)NS(=O)(=O)c3cc(C(C)(C)C)ccc3OC3CCC3)oc2c1 [Example 182, N-[(5-(tert-butyl)-2-cyclobutoxyphenyl)sulfonyl]-6-(dimethylamino)benzofuran-2-carboxamide]	> 20000 nM	11.9 nM	2.67 nM	22 nM	6.1e-08 M

Second part, led by results:

EC50 (MDA-MB-436 cells)	IC50 [1]	IC50 [2]	IC50 [3]	SMILES	EC50 (ZR-75-1 cells)
> 20000 nM	508 nM	453 nM	270 nM	CCOc1cccc(C)c1S(=O)(=O)NC(=O)c1cc2ccc(N(C)C)cc2o1 [Example 116, 6-(Dimethylamino)-N-(2-ethoxy-6-methylbenzene-1-sulfonyl)-1-benzofuran-2-carboxamide]	3.24e-07 M
> 20000 nM	342 nM	294 nM	276 nM	CN(C)c1ccc2cc(C(=O)NS(=O)(=O)c3ccccc3OCCNC(=O)OC(C)(C)C)oc2c1 [Example 117, tert-butyl [2-(2-{[6-(dimethylamino)-1-benzofuran-2-carbonyl]sulfamoyl}phenoxy)ethyl]carbamate]	6.03e-07 M
> 20000 nM	374 nM	185 nM	218 nM	CCCOc1cccc(CC)c1S(=O)(=O)NC(=O)c1cc2ccc(N(C)C)cc2o1 [Example 119, 6-(Dimethylamino)-N-(2-ethyl-6-propoxybenzene-1-sulfonyl)-1-benzofuran-2-carboxamide]	6.98e-07 M
> 20000 nM	227 nM	179 nM	275 nM	CCOc1cccc(Br)c1S(=O)(=O)NC(=O)c1cc2ccc(N(C)C)cc2o1 [Example 121, N-(2-Bromo-6-ethoxybenzene-1-sulfonyl)-6-(dimethylamino)-1-benzofuran-2-carboxamide]	3.56e-07 M
> 20000 nM	257 nM	275 nM	179 nM	CCOc1cccc(F)c1S(=O)(=O)NC(=O)c1cc2ccc(N(C)C)cc2o1 [Example 123, 6-(Dimethylamino)-N-(2-ethoxy-6-fluorobenzene-1-sulfonyl)-1-benzofuran-2-carboxamide]	1.19e-07 M
> 20000 nM	23.8 nM	20.5 nM	30.6 nM	CN(C)c1ccc2cc(C(=O)NS(=O)(=O)c3cccc4ccc(Cl)nc34)oc2c1 [Example 126, N-(2-Chloroquinoline-8-sulfonyl)-6-(dimethylamino)-1-benzofuran-2-carboxamide]	6.98e-08 M
> 20000 nM	16.8 nM	13.5 nM	28.6 nM	CCOc1ccc(C(C)C)cc1S(=O)(=O)NC(=O)c1cc2ccc(N(C)C)cc2o1 [Example 129, 6-(Dimethylamino)-N-[2-ethoxy-5-(propan-2-yl)benzene-1-sulfonyl]-1-benzofuran-2-carboxamide]	6.17e-07 M
> 20000 nM	72.7 nM	134 nM	80.1 nM	COc1cccc(C(F)(F)F)c1S(=O)(=O)NC(=O)c1cc2ccc(N(C)C)cc2o1 [Example 132, 6-(Dimethylamino)-N-[2-methoxy-6-(trifluoromethyl)benzene-1-sulfonyl]-1-benzofuran-2-carboxamide]	1.05e-07 M
> 20000 nM	107 nM	81.5 nM	5500 nM	CN(C)c1ccc2cc(C(=O)NS(=O)(=O)c3cc(Cl)c(Cl)cc3OC(F)(F)F)oc2c1 [Example 137, N-[4,5-Dichloro-2-(trifluoromethoxy)benzene-1-sulfonyl]-6-(dimethylamino)-1-benzofuran-2-carboxamide]	5.61e-06 M
